Test results taken from publication PMC12006963, “Application of Deuterium in an M1 Positive Allosteric Modulator Back-Up Program: The Discovery of VU6045422” (ACS Chemical Neuroscience, 2025).

Key:
[1] = test system: bacterial mutagenicity (4-strain with and without S9); assay: Bacterial mutagenicity mini-AMES assay; type: cell-based
[2] = biological target: Serotonin (5-HT1A) (Homo sapiens, UniProt P08908); assay: Eurofins radioligand binding
[3] = biological target: Epidermal Growth Factor (EGF) (Homo sapiens, UniProt P00533); assay: Eurofins radioligand binding
[4] = biological target: Sigma σ1 (Homo sapiens, UniProt Q99720); assay: Eurofins radioligand binding
[5] = test system: Dopamine D4.2; assay: Eurofins radioligand binding; parameters: species or system Human
[6] = biological target: Leukotriene, Cysteinyl CysLT1 (Homo sapiens, UniProt Q9Y271); assay: Eurofins radioligand binding
[7] = biological target: Adenosine A1 (Homo sapiens, UniProt P30542); assay: Eurofins radioligand binding
[8] = test system: Calcium Channel L-Type, Dihydropyridine; assay: Eurofins radioligand binding; parameters: species or system Rat
[9] = biological target: Androgen (Testosterone) (Homo sapiens, UniProt P10275); assay: Eurofins radioligand binding
[10] = biological target: hERG (Homo sapiens, UniProt Q12809); assay: hERG manual patch clamp; type: cell-based
[11] = biological target: Bradykinin B1 (Homo sapiens, UniProt P46663); assay: Eurofins radioligand binding
[12] = biological target: Adrenergic α1D (Homo sapiens, UniProt P25100); assay: Eurofins radioligand binding
[13] = biological target: Tachykinin NK1 (Homo sapiens, UniProt P25103); assay: Eurofins radioligand binding
[14] = GSH trapping in microsomes; type: in vitro ADME; details: rat, dog, cyno, and human microsomes
[15] = biological target: Muscarinic M3 (Homo sapiens, UniProt P20309); assay: Eurofins radioligand binding
[16] = biological target: Transporter, GABA (Rattus norvegicus, UniProt P23978); assay: Eurofins radioligand binding
[17] = test system: GABAA, Muscimol, Central; assay: Eurofins radioligand binding; parameters: species or system Rat
[18] = test system: CYP; assay: CYP induction; type: in vitro ADME; details: in words
[19] = biological target: Adrenergic α1B (Homo sapiens, UniProt P35368); assay: Eurofins radioligand binding
[20] = test system: Glutamate, NMDA, Agonism; assay: Eurofins radioligand binding; parameters: species or system Rat
[21] = biological target: Glucocorticoid (Homo sapiens, UniProt P04150); assay: Eurofins radioligand binding
[22] = biological target: Histamine H3 (Homo sapiens, UniProt Q9Y5N1); assay: Eurofins radioligand binding
[23] = biological target: Opiate δ1 (OP1, DOP) (Homo sapiens, UniProt P41143); assay: Eurofins radioligand binding
[24] = biological target: bile salt export pump (BSEP) (Homo sapiens, UniProt O95342); assay: Bile salt export pump inhibition; type: in vitro ADME
[25] = biological target: Transporter, Norepinephrine (NET) (Homo sapiens, UniProt P23975); assay: Eurofins radioligand binding
[26] = test system: Glutamate, NMDA, Glycine; assay: Eurofins radioligand binding; parameters: species or system Rat
[27] = biological target: Cannabinoid CB1 (Homo sapiens, UniProt P21554); assay: Eurofins radioligand binding
[28] = biological target: CYP 3A4 (Homo sapiens, UniProt P08684); assay: CYP isoform contribution to metabolism: 3A4; type: in vitro ADME
[29] = biological target: Opiate κ (OP2, KOP) (Homo sapiens, UniProt P41145); assay: Eurofins radioligand binding
[30] = biological target: Bradykinin B2 (Homo sapiens, UniProt P30411); assay: Eurofins radioligand binding
[31] = biological target: Melatonin MT1 (Homo sapiens, UniProt P48039); assay: Eurofins radioligand binding
[32] = biological target: Endothelin ETB (Homo sapiens, UniProt P24530); assay: Eurofins radioligand binding
[33] = biological target: Muscarinic M2 (Homo sapiens, UniProt P08172); assay: Eurofins radioligand binding

Sequence of Tachykinin NK1 (P25103 whole entry): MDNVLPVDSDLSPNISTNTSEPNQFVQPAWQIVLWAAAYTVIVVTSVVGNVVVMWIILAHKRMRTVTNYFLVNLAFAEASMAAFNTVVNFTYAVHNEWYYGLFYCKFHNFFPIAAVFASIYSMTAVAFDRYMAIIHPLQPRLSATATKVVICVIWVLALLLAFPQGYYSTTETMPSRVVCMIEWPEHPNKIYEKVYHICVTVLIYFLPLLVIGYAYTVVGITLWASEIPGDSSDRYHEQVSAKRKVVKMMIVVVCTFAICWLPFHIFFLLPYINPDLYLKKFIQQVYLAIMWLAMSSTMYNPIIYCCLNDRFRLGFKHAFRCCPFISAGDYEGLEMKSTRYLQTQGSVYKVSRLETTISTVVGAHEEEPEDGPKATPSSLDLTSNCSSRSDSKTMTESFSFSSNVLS
Sequence of Adenosine A1 (P30542 whole entry): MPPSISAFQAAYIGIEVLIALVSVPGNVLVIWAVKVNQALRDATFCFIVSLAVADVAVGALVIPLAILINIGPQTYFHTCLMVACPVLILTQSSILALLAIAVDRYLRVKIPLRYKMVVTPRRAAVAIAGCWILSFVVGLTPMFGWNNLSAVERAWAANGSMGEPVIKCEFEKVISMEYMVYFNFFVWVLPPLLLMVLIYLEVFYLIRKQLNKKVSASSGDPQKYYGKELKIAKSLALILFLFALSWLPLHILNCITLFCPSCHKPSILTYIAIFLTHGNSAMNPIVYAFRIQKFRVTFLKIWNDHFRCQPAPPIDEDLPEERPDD
Sequence of Cannabinoid CB1 (P21554 whole entry, canonical isoform): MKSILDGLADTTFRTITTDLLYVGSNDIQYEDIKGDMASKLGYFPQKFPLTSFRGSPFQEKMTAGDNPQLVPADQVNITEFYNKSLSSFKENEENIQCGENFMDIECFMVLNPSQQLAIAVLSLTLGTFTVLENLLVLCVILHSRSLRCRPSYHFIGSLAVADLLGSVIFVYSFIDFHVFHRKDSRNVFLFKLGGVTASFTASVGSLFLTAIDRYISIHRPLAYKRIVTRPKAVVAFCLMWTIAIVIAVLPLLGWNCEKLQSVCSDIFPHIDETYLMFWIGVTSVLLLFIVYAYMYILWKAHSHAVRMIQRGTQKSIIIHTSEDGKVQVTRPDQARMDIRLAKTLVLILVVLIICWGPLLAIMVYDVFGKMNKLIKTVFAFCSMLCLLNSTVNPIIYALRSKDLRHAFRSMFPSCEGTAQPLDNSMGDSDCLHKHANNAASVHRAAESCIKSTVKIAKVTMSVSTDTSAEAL
Sequence of Endothelin ETB (P24530 27-442): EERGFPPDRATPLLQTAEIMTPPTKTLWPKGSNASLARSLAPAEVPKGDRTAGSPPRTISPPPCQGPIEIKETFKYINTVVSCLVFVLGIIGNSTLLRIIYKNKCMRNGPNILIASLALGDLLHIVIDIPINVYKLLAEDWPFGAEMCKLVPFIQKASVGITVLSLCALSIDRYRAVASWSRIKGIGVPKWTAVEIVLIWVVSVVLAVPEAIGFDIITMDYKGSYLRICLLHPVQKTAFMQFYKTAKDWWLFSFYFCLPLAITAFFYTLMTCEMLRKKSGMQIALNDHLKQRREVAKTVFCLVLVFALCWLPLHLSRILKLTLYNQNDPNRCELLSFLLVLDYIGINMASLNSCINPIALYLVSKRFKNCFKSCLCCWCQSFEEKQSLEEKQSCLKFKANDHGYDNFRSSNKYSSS
Sequence of Bradykinin B1 (P46663 whole entry): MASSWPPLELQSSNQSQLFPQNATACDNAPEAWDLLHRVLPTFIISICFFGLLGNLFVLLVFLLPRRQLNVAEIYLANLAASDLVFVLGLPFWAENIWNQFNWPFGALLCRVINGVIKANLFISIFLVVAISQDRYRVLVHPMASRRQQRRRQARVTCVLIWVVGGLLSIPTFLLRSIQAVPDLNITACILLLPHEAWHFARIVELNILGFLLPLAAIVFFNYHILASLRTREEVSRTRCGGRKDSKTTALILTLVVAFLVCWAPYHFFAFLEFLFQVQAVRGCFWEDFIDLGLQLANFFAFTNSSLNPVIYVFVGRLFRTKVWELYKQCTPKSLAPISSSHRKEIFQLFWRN
Sequence of Leukotriene, Cysteinyl CysLT1 (Q9Y271 whole entry): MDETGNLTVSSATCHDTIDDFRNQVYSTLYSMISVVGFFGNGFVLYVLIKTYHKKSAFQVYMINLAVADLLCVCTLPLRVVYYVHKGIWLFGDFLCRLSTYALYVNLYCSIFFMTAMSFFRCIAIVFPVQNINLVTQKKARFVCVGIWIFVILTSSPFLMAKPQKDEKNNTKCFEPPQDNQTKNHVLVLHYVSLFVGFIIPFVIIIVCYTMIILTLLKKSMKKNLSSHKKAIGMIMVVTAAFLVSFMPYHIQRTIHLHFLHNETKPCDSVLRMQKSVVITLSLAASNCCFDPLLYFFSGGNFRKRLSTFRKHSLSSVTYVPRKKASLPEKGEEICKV
Sequence of Serotonin (5-HT1A) (P08908 whole entry): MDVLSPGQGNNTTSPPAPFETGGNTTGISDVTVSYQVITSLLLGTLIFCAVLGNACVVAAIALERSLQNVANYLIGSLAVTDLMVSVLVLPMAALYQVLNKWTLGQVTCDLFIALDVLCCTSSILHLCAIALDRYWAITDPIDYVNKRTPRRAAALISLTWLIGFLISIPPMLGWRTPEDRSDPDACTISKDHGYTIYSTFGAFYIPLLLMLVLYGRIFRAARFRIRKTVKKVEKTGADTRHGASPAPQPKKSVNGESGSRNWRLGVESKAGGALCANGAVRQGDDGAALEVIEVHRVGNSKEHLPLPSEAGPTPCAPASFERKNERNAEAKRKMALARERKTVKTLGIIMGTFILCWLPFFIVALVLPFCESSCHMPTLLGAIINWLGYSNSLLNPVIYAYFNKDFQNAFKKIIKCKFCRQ
Sequence of Adrenergic α1D (P25100 whole entry): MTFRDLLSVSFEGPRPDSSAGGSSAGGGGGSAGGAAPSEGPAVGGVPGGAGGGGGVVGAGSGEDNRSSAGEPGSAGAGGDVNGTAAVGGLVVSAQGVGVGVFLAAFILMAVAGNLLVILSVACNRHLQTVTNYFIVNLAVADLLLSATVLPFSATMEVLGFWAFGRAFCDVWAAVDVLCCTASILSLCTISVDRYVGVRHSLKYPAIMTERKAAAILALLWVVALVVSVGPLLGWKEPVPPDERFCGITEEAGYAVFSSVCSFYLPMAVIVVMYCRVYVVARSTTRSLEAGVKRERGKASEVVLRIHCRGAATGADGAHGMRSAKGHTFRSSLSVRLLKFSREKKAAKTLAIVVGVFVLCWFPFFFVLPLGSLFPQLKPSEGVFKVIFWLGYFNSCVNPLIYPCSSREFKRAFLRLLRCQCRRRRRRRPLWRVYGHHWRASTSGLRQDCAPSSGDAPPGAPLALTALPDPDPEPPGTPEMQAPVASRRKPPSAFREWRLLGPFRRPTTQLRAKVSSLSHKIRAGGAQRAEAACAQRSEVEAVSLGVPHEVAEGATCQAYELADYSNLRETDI
Sequence of Transporter, Norepinephrine (NET) (P23975 whole entry): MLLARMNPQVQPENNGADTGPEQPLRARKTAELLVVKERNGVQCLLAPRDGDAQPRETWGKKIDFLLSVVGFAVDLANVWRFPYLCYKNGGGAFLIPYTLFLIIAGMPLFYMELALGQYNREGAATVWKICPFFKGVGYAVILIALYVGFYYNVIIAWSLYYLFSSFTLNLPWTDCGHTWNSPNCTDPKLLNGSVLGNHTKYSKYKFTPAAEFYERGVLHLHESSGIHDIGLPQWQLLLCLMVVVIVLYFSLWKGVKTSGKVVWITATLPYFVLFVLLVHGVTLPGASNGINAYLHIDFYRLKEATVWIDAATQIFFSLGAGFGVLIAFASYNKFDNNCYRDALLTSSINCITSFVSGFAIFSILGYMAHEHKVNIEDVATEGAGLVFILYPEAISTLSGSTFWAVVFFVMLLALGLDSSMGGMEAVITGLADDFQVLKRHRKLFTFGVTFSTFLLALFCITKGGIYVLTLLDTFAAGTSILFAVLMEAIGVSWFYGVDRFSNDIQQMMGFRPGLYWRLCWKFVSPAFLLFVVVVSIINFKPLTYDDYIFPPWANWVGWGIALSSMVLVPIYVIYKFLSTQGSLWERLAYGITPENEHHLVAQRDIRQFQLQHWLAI
Sequence of Histamine H3 (Q9Y5N1 whole entry): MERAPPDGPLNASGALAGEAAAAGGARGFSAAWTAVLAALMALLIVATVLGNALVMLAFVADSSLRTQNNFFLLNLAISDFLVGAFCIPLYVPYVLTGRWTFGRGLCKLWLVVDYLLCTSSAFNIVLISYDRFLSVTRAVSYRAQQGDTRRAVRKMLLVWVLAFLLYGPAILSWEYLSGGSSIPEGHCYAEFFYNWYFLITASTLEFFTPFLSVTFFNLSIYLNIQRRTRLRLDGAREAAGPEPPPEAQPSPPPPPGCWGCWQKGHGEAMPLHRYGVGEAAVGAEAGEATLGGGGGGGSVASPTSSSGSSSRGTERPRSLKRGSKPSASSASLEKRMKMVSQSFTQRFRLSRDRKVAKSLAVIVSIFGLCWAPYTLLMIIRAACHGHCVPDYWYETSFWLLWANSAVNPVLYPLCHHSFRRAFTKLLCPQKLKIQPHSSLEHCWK

For [2H]C1([2H])c2ncccc2C(=O)N1Cc1c(F)cc(-c2cccc3nn(C([2H])([2H])[2H])cc23)cc1F [compound 5], the “bacterial mutagenicity mini-AMES result” value [1] was “negative”, the inhibition at 10 µM [2] was -5% and the inhibition at 10 µM [3] was 3%. For the same molecule, the inhibition at 10 µM [4] was 11%, the “% Inhibition at 10 µM” value [5] was 13% and the inhibition at 10 µM [6] was -9%. For the same molecule, the inhibition at 10 µM [7] was 30%, the “% Inhibition at 10 µM” value [8] was 6% and the inhibition at 10 µM [9] was 0%. It also gave an IC50 [10] of 21 µM, an inhibition at 10 µM [11] of 13% and an inhibition at 10 µM [12] of -15%. The inhibition at 10 µM [13] was 4%, the “conjugation in GSH trapping studies” value [14] was under 0.1% and the inhibition at 10 µM [15] was -10%. For the same molecule, the inhibition at 10 µM [16] was 31%, the “% Inhibition at 10 µM” value [17] was 0% and the CYP induction liability [18] was “no time-dependent CYP inhibition or CYP induction liabilities”. For the same molecule, the inhibition at 10 µM [19] was 10%, the “% Inhibition at 10 µM” value [20] was 3% and the inhibition at 10 µM [21] was 13%. The inhibition at 10 µM [22] was 5%, the inhibition at 10 µM [23] was 1% and the IC50 [24] was 42.3 µM. The inhibition at 10 µM [25] was 12%, the “% Inhibition at 10 µM” value [26] was -8% and the inhibition at 10 µM [27] was -3%. For the same molecule, the “contribution of CYP 3A4 to metabolism” value [28] was 92.6%, the inhibition at 10 µM [29] was 9% and the inhibition at 10 µM [30] was 2%. The inhibition at 10 µM [31] was 5%, the inhibition at 10 µM [32] was 1% and the inhibition at 10 µM [33] was 5%.
